Assays:
Format in all cases: in vivo
[1] = tested on: windgrass (Apera spica-venti); assay: Test B postemergence plant response; conditions: Postemergence
How it was run: (§1)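 Visual injury ratings on a 0–100 scale, where 100 means complete control, were made 13 to 15 days after postemergence treatment of greenhouse-grown plants at the 1- to 4-leaf stage.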

[2] = tested on: winter barley (Hordeum vulgare); assay: Test B postemergence plant response; conditions: Postemergence
How it was run: as §1

[3] = tested on: cocklebur (Xanthium strumarium); assay: Test B pre-/postemergence plant response
How it was run: (§2)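 Visual scoring from 0 (no effect) to 100 (complete control) against untreated controls was done 13 to 15 days after greenhouse treatment. Chemicals were formulated in a surfactant-containing non-phytotoxic solvent and applied to soil preemergence or to 1- to 4-leaf (2-18 cm) plants postemergence.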

[4] = tested on: lambsquarters (Chenopodium album); assay: Test B pre-/postemergence plant response; conditions: Postemergence
How it was run: as §2

[5] = tested on: catchweed bedstraw (Galium aparine); assay: Test B pre-/postemergence plant response; conditions: Preemergence, scale 0 to 100
How it was run: as §2

[6] = tested on: common ragweed (Ambrosia elation); assay: Test B pre-/postemergence plant response
How it was run: as §2

[7] = tested on: goosegrass (Eleusine indica); assay: Test B pre-/postemergence plant response
How it was run: as §2

[8] = tested on: wheat (Triticum aestivum); assay: Test B pre-/postemergence plant response
How it was run: as §2

[9] = tested on: wild oat (Avena fatua); assay: Test B pre-/postemergence plant response
How it was run: as §2

[10] = tested on: yellow nutsedge (Cyperus esculentus); assay: Test B pre-/postemergence plant response
How it was run: as §2

[11] = tested on: large crabgrass (Digitaria sanguinalis); assay: Test B pre-/postemergence plant response
How it was run: as §2

[12] = tested on: giant foxtail (Setaria faberii); assay: Test B pre-/postemergence plant response
How it was run: as §2

[13] = tested on: blackgrass (Alopecurus myosuroides); assay: Test B pre-/postemergence plant response
How it was run: as §2

[14] = tested on: johnsongrass (Sorghum halepense); assay: Test B pre-/postemergence plant response
How it was run: as §2

[15] = tested on: common (oilseed) sunflower (Helianthus annuus); assay: Test B pre-/postemergence plant response; conditions: Preemergence
How it was run: as §2

[16] = 31 g ai/ha, scale 0 to 100, 0 no effect, 100 complete control
[17] = Postemergence, 31 g ai/ha, scale 0 to 100, 0 no effect, 100 complete control
[18] = Postemergence, 62 g ai/ha, scale 0 to 100
[19] = Postemergence, 125 g ai/ha, scale 0 to 100
[20] = Postemergence, 250 g ai/ha, scale 0 to 100
[21] = Preemergence, 31 g ai/ha, 0 to 100 scale, 0 no effect, 100 complete control
[22] = Preemergence, 62 g ai/ha, scale 0 to 100
[23] = Preemergence, 250 g ai/ha, scale 0 to 100
[24] = Preemergence, 125 g ai/ha, scale 0 to 100

## 4-[3-(4-chlorophenyl)-5-methyl-1H-pyrazol-3-yl]-5-hydroxy-2-methyl-3(2H)-pyridazinone [Compound 3]
[1]; [16]
  Plant response rating, Windgrass: 80
[1]; 62 g ai/ha, scale 0 to 100
  Plant response rating, Windgrass: 100
[1]; 125 g ai/ha, scale 0 to 100
  Plant response rating, Windgrass: 100
[1]; 250 g ai/ha, scale 0 to 100
  Plant response rating, Windgrass: 100
[2]; [16]
  Plant response rating, Barley: 0
[2]; 62 g ai/ha, scale 0 to 100
  Plant response rating, Barley: 0
[2]; 125 g ai/ha, scale 0 to 100
  Plant response rating, Barley: 0
[2]; 250 g ai/ha, scale 0 to 100
  Plant response rating, Barley: 0
[3]; [17]
  Plant response rating, Cocklebur: 0
[3]; [18]
  Plant response rating, Cocklebur: 0
[3]; [19]
  Plant response rating, Cocklebur: 0
[3]; [20]
  Plant response rating, Cocklebur: 0
[3]; [21]
  Plant response rating, Cocklebur: 0
[3]; [22]
  Plant response rating, Cocklebur: 0
[3]; [23]
  Plant response rating, Cocklebur: 0
[4]; [16]
  Plant response rating, Lambsquarters: 0
[4]; 62 g ai/ha, scale 0 to 100
  Plant response rating, Lambsquarters: 0
[4]; 125 g ai/ha, scale 0 to 100
  Plant response rating, Lambsquarters: 15
[4]; 250 g ai/ha, scale 0 to 100
  Plant response rating, Lambsquarters: 20
[5]; 62 g ai/ha
  Plant response rating, Galium: 85
[5]; 125 g ai/ha
  Plant response rating, Galium: 85
[5]; 250 g ai/ha
  Plant response rating, Galium: 85
[6]; [18]
  Plant response rating, Ragweed: 0
[6]; [19]
  Plant response rating, Ragweed: 0
[6]; [20]
  Plant response rating, Ragweed: 50
[6]; [21]
  Plant response rating, Ragweed: 0
[6]; [24]
  Plant response rating, Ragweed: 0
[6]; [23]
  Plant response rating, Ragweed: 0
[7]; [17]
  Plant response rating, Goosegrass: 95
[7]; [18]
  Plant response rating, Goosegrass: 95
[7]; [19]
  Plant response rating, Goosegrass: 100
[7]; [20]
  Plant response rating, Goosegrass: 100
[7]; [21]
  Plant response rating, Goosegrass: 80
[7]; [22]
  Plant response rating, Goosegrass: 85
[7]; [24]
  Plant response rating, Goosegrass: 85
[7]; [23]
  Plant response rating, Goosegrass: 100
[8]; [17]
  Plant response rating, Wheat: 80
[8]; [18]
  Plant response rating, Wheat: 90
[8]; [19]
  Plant response rating, Wheat: 100
[8]; [20]
  Plant response rating, Wheat: 100
[8]; [21]
  Plant response rating, Wheat: 45
[8]; [22]
  Plant response rating, Wheat: 75
[8]; [24]
  Plant response rating, Wheat: 95
[8]; [23]
  Plant response rating, Wheat: 98
[9]; [17]
  Plant response rating, Oat, Wild: 90
[9]; [18]
  Plant response rating, Oat, Wild: 95
[9]; [19]
  Plant response rating, Oat, Wild: 100
[9]; [20]
  Plant response rating, Oat, Wild: 100
[9]; [21]
  Plant response rating, Oat, Wild: 60
[9]; [22]
  Plant response rating, Oat, Wild: 70
[9]; [24]
  Plant response rating, Oat, Wild: 80
[9]; [23]
  Plant response rating, Oat, Wild: 95
[10]; [17]
  Plant response rating, Nutsedge, Yellow: 0
[10]; [18]
  Plant response rating, Nutsedge, Yellow: 0
[10]; [19]
  Plant response rating, Nutsedge, Yellow: 0
[10]; [20]
  Plant response rating, Nutsedge, Yellow: 0
[10]; [21]
  Plant response rating, Nutsedge, Yellow: 0
[10]; [22]
  Plant response rating, Nutsedge, Yellow: 0
[10]; [24]
  Plant response rating, Nutsedge, Yellow: 0
[10]; [23]
  Plant response rating, Nutsedge, Yellow: 0
[11]; [17]
  Plant response rating, Crabgrass, Large: 100
[11]; [18]
  Plant response rating, Crabgrass, Large: 100
[11]; [19]
  Plant response rating, Crabgrass, Large: 100
[11]; [20]
  Plant response rating, Crabgrass, Large: 100
[11]; [21]
  Plant response rating, Crabgrass, Large: 90
[11]; [22]
  Plant response rating, Crabgrass, Large: 90
[11]; [24]
  Plant response rating, Crabgrass, Large: 100
[11]; [23]
  Plant response rating, Crabgrass, Large: 100
[12]; [17]
  Plant response rating, Foxtail, Giant: 100
[12]; [18]
  Plant response rating, Foxtail, Giant: 100
[12]; [19]
  Plant response rating, Foxtail, Giant: 100
[12]; [20]
  Plant response rating, Foxtail, Giant: 100
[12]; [21]
  Plant response rating, Foxtail, Giant: 98
[12]; [22]
  Plant response rating, Foxtail, Giant: 98
[12]; [24]
  Plant response rating, Foxtail, Giant: 100
[12]; [23]
  Plant response rating, Foxtail, Giant: 100
[13]; 250 g ai/ha, preemergence, 0-100 scale
  Blackgrass plant response rating: 100
[13]; [17]
  Plant response rating, Blackgrass: 100
[13]; [18]
  Plant response rating, Blackgrass: 100
[13]; [19]
  Plant response rating, Blackgrass: 100
[13]; [20]
  Plant response rating, Blackgrass: 100
[13]; [21]
  Plant response rating, Blackgrass: 80
[13]; [22]
  Plant response rating, Blackgrass: 100
[13]; [24]
  Plant response rating, Blackgrass: 100
[14]; [17]
  Plant response rating, Johnsongrass: 0
[14]; [18]
  Plant response rating, Johnsongrass: 80
[14]; [21]
  Plant response rating, Johnsongrass: 80
[14]; [22]
  Plant response rating, Johnsongrass: 95
[14]; [24]
  Plant response rating, Johnsongrass: 100
[14]; [23]
  Plant response rating, Johnsongrass: 100
[15]; 31 g ai/ha, 0 to 100 scale, 0 no effect, 100 complete control
  Plant response rating, Sunflower: 30
[15]; 62 g ai/ha, scale 0 to 100
  Plant response rating, Sunflower: 40
